In ChEMBL document CHEMBL1201862, “PubChem BioAssay data set” (2004):
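Assay format: 96-well plates, 48-hour exposure. GI50 is the concentration that inhibits growth by half.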 The source made the active and inactive calls. No stated cut-off is given here; in the data, active = GI50 up to about 1.1 µM and inactive = higher.

How the values were obtained:
Experiment in all cases: NCI-60 cell line screen, 48 h
[1] = test system: SF-295
[2] = test system: OVCAR-8
[3] = test system: OVCAR-4
[4] = test system: SN12C
[5] = test system: DU-145
[6] = test system: OVCAR-3
[7] = test system: MDA-MB-231
[8] = test system: A498
[9] = test system: ACHN
[10] = test system: MOLT-4
[11] = test system: SW-620
[12] = test system: NCI-H522
[13] = test system: MDA-N
[14] = test system: PC-3
[15] = test system: A549
[16] = test system: SNB-19
[17] = test system: U-251
[18] = test system: K562
[19] = test system: CAKI-1

In the case of `N#C[BH2-][n+]1cn(C2CC(OP(=O)(O)OCC3OC(n4cnc5c(N)ncnc54)CC3O)C(CO)O2)c2nc(N)[nH]c(=O)c21` (centres undefined), the GI50 [1] was > 100 µM (inactive), the GI50 [2] was > 100 µM (inactive) and the GI50 [3] was > 100 µM (inactive). For the same compound, the GI50 [4] was > 100 µM (inactive), the GI50 [5] was > 100 µM (inactive) and the GI50 [6] was > 100 µM (inactive). For the same compound, the GI50 [7] was > 100 µM (inactive), the GI50 [8] was > 100 µM (inactive) and the GI50 [9] was > 100 µM (inactive). For the same compound, the GI50 [10] was > 100 µM (inactive), the GI50 [11] was > 100 µM (inactive) and the GI50 [12] was > 100 µM (inactive). For the same compound, the GI50 [13] was > 100 µM (inactive), the GI50 [14] was > 100 µM (inactive) and the GI50 [15] was > 100 µM (inactive). The GI50 [16] was > 100 µM (inactive), the GI50 [17] was > 100 µM (inactive) and the GI50 [18] was > 100 µM (inactive). The GI50 [19] was > 100 µM (inactive).
In the case of `Cc1[nH]c(=O)[nH]c(=S)c1C(=O)NC(C)(CO)CO`, the GI50 [1] was > 100 µM (inactive), the GI50 [2] was > 100 µM (inactive) and the GI50 [3] was > 100 µM (inactive). The GI50 [4] was > 100 µM (inactive), the GI50 [5] was > 100 µM (inactive) and the GI50 [6] was > 100 µM (inactive). For the same compound, the GI50 [7] was > 100 µM (inactive), the GI50 [8] was > 100 µM (inactive) and the GI50 [9] was > 100 µM (inactive). The GI50 [10] was > 100 µM (inactive), the GI50 [11] was > 100 µM (inactive) and the GI50 [12] was > 100 µM (inactive). For the same compound, the GI50 [13] was > 100 µM (inactive), the GI50 [14] was > 100 µM (inactive) and the GI50 [15] was > 100 µM (inactive). For the same compound, the GI50 [16] was > 100 µM (inactive), the GI50 [17] was > 100 µM (inactive) and the GI50 [18] was > 100 µM (inactive). The GI50 [19] was > 100 µM (inactive).
For `O=C(c1ccco1)N(C(=O)N1CCN(c2ccccc2)CC1)S(=O)(=O)c1ccccc1`, the GI50 [1] was 43.6 µM (inactive), the GI50 [2] was 32.6 µM (inactive) and the GI50 [3] was 27.5 µM (inactive). The GI50 [4] was 23.9 µM (inactive), the GI50 [5] was 43.7 µM (inactive) and the GI50 [6] was 26.9 µM (inactive). For the same compound, the GI50 [7] was 36.9 µM (inactive), the GI50 [8] was 37.5 µM (inactive) and the GI50 [9] was 24.7 µM (inactive). For the same compound, the GI50 [10] was 21.9 µM (inactive), the GI50 [11] was 38.5 µM (inactive) and the GI50 [12] was 18.3 µM (inactive). The GI50 [13] was 22.5 µM (inactive), the GI50 [14] was 28.6 µM (inactive) and the GI50 [15] was 34.4 µM (inactive). For the same compound, the GI50 [16] was 27.7 µM (inactive), the GI50 [17] was 27.4 µM (inactive) and the GI50 [18] was 33 µM (inactive). The GI50 [19] was 22.8 µM (inactive).
For `COc1cccc(C2c3cc4c(cc3OC(N3CCOCC3)C2C)OCO4)c1O` (centres undefined), the GI50 [1] was 3.64 µM (inactive), the GI50 [2] was 6.59 µM (inactive) and the GI50 [3] was 9.86 µM (inactive). For the same compound, the GI50 [4] was 6.59 µM (inactive), the GI50 [5] was 4.43 µM (inactive) and the GI50 [6] was 3.64 µM (inactive). The GI50 [7] was 11.6 µM (inactive), the GI50 [8] was 6.27 µM (inactive) and the GI50 [9] was 10.1 µM (inactive). The GI50 [10] was 4.02 µM (inactive), the GI50 [11] was 3.87 µM (inactive) and the GI50 [12] was 2.9 µM (inactive). For the same compound, the GI50 [13] was 1.03 µM (active), the GI50 [14] was 4.7 µM (inactive) and the GI50 [15] was 4.82 µM (inactive). The GI50 [16] was 3.44 µM (inactive), the GI50 [17] was 0.38 µM (active) and the GI50 [18] was 3.06 µM (inactive). For the same compound, the GI50 [19] was 2.66 µM (inactive).
In the case of `C=CC(OC(=O)C(C)C)c1ccc(OC(=O)C(C)C)cc1` (centres undefined), the GI50 [1] was 15.6 µM (inactive), the GI50 [2] was 17.5 µM (inactive) and the GI50 [3] was 14.8 µM (inactive). For the same compound, the GI50 [4] was 14 µM (inactive), the GI50 [5] was 32.9 µM (inactive) and the GI50 [6] was 16.9 µM (inactive). For the same compound, the GI50 [7] was 16.4 µM (inactive), the GI50 [8] was 17.6 µM (inactive) and the GI50 [9] was 14.6 µM (inactive). For the same compound, the GI50 [10] was 6.93 µM (inactive), the GI50 [11] was 4.06 µM (inactive) and the GI50 [12] was 1.73 µM (inactive). The GI50 [13] was 12.5 µM (inactive), the GI50 [14] was 8.97 µM (inactive) and the GI50 [15] was 19.5 µM (inactive). For the same compound, the GI50 [16] was 14.9 µM (inactive), the GI50 [17] was 4.33 µM (inactive) and the GI50 [18] was 7.96 µM (inactive). For the same compound, the GI50 [19] was 2.56 µM (inactive).
With `COC(=O)C1C(OS(=O)(=O)O)CCC2CN3CCc4c([nH]c5ccccc45)C3CC21` (centres undefined) the GI50 [1] was > 100 µM (inactive), the GI50 [2] was > 100 µM (inactive) and the GI50 [3] was > 100 µM (inactive). The GI50 [4] was > 100 µM (inactive), the GI50 [5] was > 100 µM (inactive) and the GI50 [6] was > 100 µM (inactive). For the same compound, the GI50 [7] was > 100 µM (inactive), the GI50 [8] was > 100 µM (inactive) and the GI50 [9] was > 100 µM (inactive). For the same compound, the GI50 [10] was > 100 µM (inactive), the GI50 [11] was > 100 µM (inactive) and the GI50 [12] was > 100 µM (inactive). The GI50 [13] was > 100 µM (inactive), the GI50 [14] was > 100 µM (inactive) and the GI50 [15] was > 100 µM (inactive). For the same compound, the GI50 [16] was > 100 µM (inactive), the GI50 [17] was > 100 µM (inactive) and the GI50 [18] was > 100 µM (inactive). For the same compound, the GI50 [19] was > 100 µM (inactive).
